Assay results published in US12421252B2, “Spiro (isobenzofuranazetidine) compounds for the treatment of autoimmune disease” (Hoffmann-La Roche Inc., priority 2020, dated 2025).

These molecules were tested against T1, hTLR9 (Homo sapiens, UniProt Q9NR96) (assay: HEK293-Blue-hTLR-9 cells assay). Conditions: HEK293-Blue-hTLR9 cells, ODN2006 stimulation, 20 hrs, SEAP reporter; read-out: HEK/hTLR9 IC50.
T1 sequence (Q9NR96 26-1032): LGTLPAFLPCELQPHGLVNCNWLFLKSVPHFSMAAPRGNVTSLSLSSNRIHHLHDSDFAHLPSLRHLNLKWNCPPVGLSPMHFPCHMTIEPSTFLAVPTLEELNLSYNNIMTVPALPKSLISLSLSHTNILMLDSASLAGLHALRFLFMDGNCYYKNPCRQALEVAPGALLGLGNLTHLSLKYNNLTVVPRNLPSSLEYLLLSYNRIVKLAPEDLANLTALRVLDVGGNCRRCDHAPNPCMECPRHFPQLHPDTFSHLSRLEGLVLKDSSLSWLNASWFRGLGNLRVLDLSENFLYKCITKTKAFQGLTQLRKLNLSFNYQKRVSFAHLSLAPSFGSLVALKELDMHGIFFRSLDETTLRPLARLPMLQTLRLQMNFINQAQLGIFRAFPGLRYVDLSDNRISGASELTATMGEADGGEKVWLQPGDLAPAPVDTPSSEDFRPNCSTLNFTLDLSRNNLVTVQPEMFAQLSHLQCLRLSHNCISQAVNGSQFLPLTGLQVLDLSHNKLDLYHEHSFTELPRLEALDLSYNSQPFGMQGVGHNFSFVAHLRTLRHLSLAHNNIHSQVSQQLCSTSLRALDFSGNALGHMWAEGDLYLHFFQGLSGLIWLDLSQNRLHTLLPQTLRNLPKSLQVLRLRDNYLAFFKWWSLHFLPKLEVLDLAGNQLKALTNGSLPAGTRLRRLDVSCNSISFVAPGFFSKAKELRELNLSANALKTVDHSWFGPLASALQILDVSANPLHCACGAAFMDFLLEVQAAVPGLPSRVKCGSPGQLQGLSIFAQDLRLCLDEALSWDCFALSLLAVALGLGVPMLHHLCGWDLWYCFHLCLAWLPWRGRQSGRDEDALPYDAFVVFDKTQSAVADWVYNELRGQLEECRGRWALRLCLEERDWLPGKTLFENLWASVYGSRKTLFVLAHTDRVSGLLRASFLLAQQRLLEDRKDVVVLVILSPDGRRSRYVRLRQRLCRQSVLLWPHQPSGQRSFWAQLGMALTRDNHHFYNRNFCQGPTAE
Format: cell-based
Source text: HEK293-Blue-hTLR-9 cells assay: A stable HEK293-Blue-hTLR-9 cell line was purchased from InvivoGen (Cat. #: hkb-htlr9, San Diego, California, USA). These cells were originally designed for studying the stimulation of human TLR9 by monitoring the activation of NF-κB. A SEAP (secreted embryonic alkaline phosphatase) reporter gene was placed under the control of the IFN-β minimal promoter fused to five NF-κB and AP-1-binding sites. The SEAP was induced by activating NF-κB and AP-1 via stimulating HEK-Blue hTLR9 cells with TLR9 ligands. Therefore the reporter expression was declined by TLR9 antagonist under the stimulation of a ligand, such as ODN2006 (Cat. #: tlrl-2006-1, Invivogen, San Diego, California, USA), for incubation of 20 hrs. The cell culture supernatant SEAP reporter activity was determined using QUANTI-Blue™ kit (Cat. #: rep-qb1, Invivogen, San Diego, California, USA) at a wavelength of 640 nm, a detection medium that turns purple or blue in the presence of alkaline phosphatase.
HEK293-Blue-hTLR9 cells were incubated at a density of 250,000˜450,000 cells/mL in a volume of 170 μL in a 96-well plate in Dulbecco's Modified Eagle's medium (DMEM) containing 4.5 g/L glucose, 50 U/mL penicillin, […], 2 mM L-glutamine, 10% (v/v) heat-inactivated fetal bovine serum with addition of 20 μL test compound in a serial dilution in the presence of final DMSO at 1% and 10 μL of 20 uM ODN2006 in above DMEM, perform incubation under 37° C. in a CO2 incubator for 20 hrs. Then 20 μL of the supernatant from each well was incubated with 180 μL Quanti-blue substrate solution at 37° C. for 2 h and the absorbance was read at 620-655 nm using a spectrophotometer. The signaling pathway that TLR9 activation leads to downstream NF-κB activation has been widely accepted, and therefore similar reporter assay was modified for evaluating TLR9 antagonist.
`[2H]c1ccc2c(N3C[C@H](CN4CC5(C4)OCc4cc(N6CC(N)C6)ncc45)O[C@H](C)C3)ccc(C#N)c2n1` [Example 32, 5-[(2S,6R)-2-[[6-(3-aminoazetidin-1-yl)spiro[1H-furo[3,4-c]pyridine-3,3′-azetidine]-1′-yl]methyl]-6-methyl-morpholin-4-yl]-2-deuterio-quinoline-8-carbonitrile] gave an IC50 of 244 nM. Work on `C[C@@H]1CN(c2ccc(C#N)n3nccc23)C[C@H](CN2CC3(C2)OCc2cc(N4CC(C)(N)C4)cnc23)O1` [Example 26, 4-[(2S,6R)-2-[[3-(3-amino-3-methyl-azetidin-1-yl)spiro[5H-furo[3,4-b]pyridine-7,3′-azetidine]-1′-yl]methyl]-6-methyl-morpholin-4-yl]pyrazolo[1,5-a]pyridine-7-carbonitrile] yielded an IC50 of 80 nM. With `C[C@@H]1CN(c2ccc(C#N)n3ncc(F)c23)C[C@H](CN2CC3(C2)OCc2cc(N4CC5(CNC5)C4)ccc23)O1` [Example 12, 4-[(2S,6R)-2-[[6-(2,6-diazaspiro[3.3]heptan-2-yl)spiro[1H-isobenzofuran-3,3′-azetidine]-1′-yl]methyl]-6-methyl-morpholin-4-yl]-3-fluoro-pyrazolo[1,5-a]pyridine-7-carbonitrile] the IC50 was 103 nM. Work on `C[C@@H]1CN(c2ccc(C#N)n3ncc(F)c23)C[C@H](CN2CC3(C2)OCc2cc(N4CC5(CN(C)C5)C4)ccc23)O1` [Example 2, 3-fluoro-4-[(2R,6S)-2-methyl-6-[[6-(6-methyl-2,6-diazaspiro[3.3]heptan-2-yl)spiro[1H-isobenzofuran-3,3′-azetidine]-1′-yl]methyl]morpholin-4-yl]pyrazolo[1,5-a]pyridine-7-carbonitrile] yielded an IC50 of 45 nM. `[2H]c1ccc2c(N3C[C@H](CN4CC5(C4)OCc4cc(N6C[C@H]7NCCO[C@@H]7C6)ncc45)O[C@H](C)C3)ccc(C#N)c2n1` [Example 28, 5-[(2S,6R)-2-[[6-[(4aR,7aR)-3,4,4a,5,7,7a-hexahydro-2H-pyrrolo[3,4-b][1,4]oxazin-6-yl]spiro[1H-furo[3,4-c]pyridine-3,3′-azetidine]-1′-yl]methyl]-6-methyl-morpholin-4-yl]-2-deuterio-quinoline-8-carbonitrile] gave an IC50 of 160 nM. `[2H]c1ccc2c(N3C[C@H](CN4CC5(C4)OCc4cc(N6CC(C)(N)C6)cnc45)O[C@H](C)C3)ccc(C#N)c2n1` [Example 21, 5-[(2S,6R)-2-[[3-(3-amino-3-methyl-azetidin-1-yl)spiro[5H-furo[3,4-b]pyridine-7,3′-azetidine]-1′-yl]methyl]-6-methyl-morpholin-4-yl]-2-deuterio-quinoline-8-carbonitrile] showed an IC50 of 55 nM. Work on `C[C@@H]1CN(c2cc(=O)n(C)c3ncccc23)C[C@H](CN2CC3(C2)OCc2cc(N4CC(N)C4)ccc23)O1` [Example 13, 4-[(2S,6R)-2-[[6-(3-aminoazetidin-1-yl)spiro[1H-isobenzofuran-3,3′-azetidine]-1′-yl]methyl]-6-methyl-morpholin-4-yl]-1-methyl-1,8-naphthyridin-2-one] yielded an IC50 of 68 nM. `C[C@@H]1CN(c2ccc(C#N)n3ncc(F)c23)C[C@H](CN2CC3(C2)OCc2cc(N4CC[C@](C)(N)C4)ccc23)O1` [Example 5, 4-[(2S,6R)-2-[[6-[(3S)-3-amino-3-methyl-pyrrolidin-1-yl]spiro[1H-isobenzofuran-3,3′-azetidine]-1′-yl]methyl]-6-methyl-morpholin-4-yl]-3-fluoro-pyrazolo[1,5-a]pyridine-7-carbonitrile] gave an IC50 of 94 nM. With `C[C@@H]1CN(c2ccc(C#N)n3ncc(F)c23)C[C@H](CN2CC3(C2)OCc2cc(N[C@H]4CNC[C@H]4F)ccc23)O1` [Example 3, 3-fluoro-4-[(2S,6R)-2-[[6-[[(3S,4R)-4-fluoropyrrolidin-3-yl]amino]spiro[1H-isobenzofuran-3,3′-azetidine]-1′-yl]methyl]-6-methyl-morpholin-4-yl]pyrazolo[1,5-a]pyridine-7-carbonitrile] the IC50 was 47 nM. `C[C@@H]1CN(c2ccc(C#N)n3nccc23)C[C@H](CN2CC3(C2)OCc2cc(N4CC(N)C4)ccc23)O1` [Example 19, 4-[(2S,6R)-2-[[6-(3-aminoazetidin-1-yl)spiro[1H-isobenzofuran-3,3′-azetidine]-1′-yl]methyl]-6-methyl-morpholin-4-yl]pyrazolo[1,5-a]pyridine-7-carbonitrile] showed an IC50 of 36 nM. Molecule `[2H]c1ccc2c(N3C[C@H](CN4CC5(C4)OCc4cc(N6C[C@H]7NCCO[C@@H]7C6)ccc45)O[C@H](C)C3)ccc(C#N)c2n1` [Example 17, 5-[(2S,6R)-2-[[6-[(4aR,7aR)-3,4,4a,5,7,7a-hexahydro-2H-pyrrolo[3,4-b][1,4]oxazin-6-yl]spiro[1H-isobenzofuran-3,3′-azetidine]-1′-yl]methyl]-6-methyl-morpholin-4-yl]-2-deuterio-quinoline-8-carbonitrile] has an IC50 of 32 nM. `C[C@@H]1CN(c2ccc(C#N)n3ncc(F)c23)C[C@H](CN2CC3(C2)OCc2cc(N4CC(C)(N)C4)ccc23)O1` [Example 1, 4-[(2S,6R)-2-[[6-(3-amino-3-methyl-azetidin-1-yl)spiro[1H-isobenzofuran-3,3′-azetidine]-1′-yl]methyl]-6-methyl-morpholin-4-yl]-3-fluoro-pyrazolo[1,5-a]pyridine-7-carbonitrile] gave an IC50 of 131 nM. With `C[C@@H]1CN(c2ccc(C#N)n3ncc(F)c23)C[C@H](CN2CC3(C2)OCc2cc(N4CC(N)C4)ccc23)O1` [Example 9, 4-[(2S,6R)-2-[[6-(3-aminoazetidin-1-yl)spiro[1H-isobenzofuran-3,3′-azetidine]-1′-yl]methyl]-6-methyl-morpholin-4-yl]-3-fluoro-pyrazolo[1,5-a]pyridine-7-carbonitrile] the IC50 was 84 nM. Work on `[2H]c1ccc2c(N3C[C@H](CN4CC5(C4)OCc4cc(N6CC(N)C6)cnc45)O[C@H](C)C3)ccc(C#N)c2n1` [Example 20, 5-[(2S,6R)-2-[[3-(3-aminoazetidin-1-yl)spiro[5H-furo[3,4-b]pyridine-7,3′-azetidine]-1′-yl]methyl]-6-methyl-morpholin-4-yl]-2-deuterio-quinoline-8-carbonitrile] yielded an IC50 of 32 nM. With `[2H]c1ccc2c(N3C[C@H](CN4CC5(C4)OCc4cc(N6CCNCC6)ccc45)O[C@H](C)C3)ccc(C#N)c2n1` [Example 18, 2-deuterio-5-[(2R,6S)-2-methyl-6-[(6-piperazin-1-ylspiro[1H-isobenzofuran-3,3′-azetidine]-1′-yl)methyl]morpholin-4-yl]quinoline-8-carbonitrile] the IC50 was 32 nM. With `C[C@@H]1CN(c2ccc(C#N)n3ncc(F)c23)C[C@H](CN2CC3(C2)OCc2cc(N4CC5(CNCCO5)C4)ccc23)O1` [Example 4, 3-fluoro-4-[(2R,6S)-2-methyl-6-[[6-(5-oxa-2,8-diazaspiro[3.5]nonan-2-yl)spiro[1H-isobenzofuran-3,3′-azetidine]-1′-yl]methyl]morpholin-4-yl]pyrazolo[1,5-a]pyridine-7-carbonitrile] the IC50 was 96 nM. `[2H]c1ccc2c(N3C[C@H](CN4CC5(C4)OCc4cc(N6C[C@@H](N)[C@H](OC)C6)ccc45)O[C@H](C)C3)ccc(C#N)c2n1` [Example 16, 5-[(2S,6R)-2-[[6-[(3R,4R)-3-amino-4-methoxy-pyrrolidin-1-yl]spiro[1H-isobenzofuran-3,3′-azetidine]-1′-yl]methyl]-6-methyl-morpholin-4-yl]-2-deuterio-quinoline-8-carbonitrile] was tested, and the IC50 was 32 nM.
